Laboratory results as given in patent US20250049931A1, “POLYSARCOSINE-VITAMIN E DERIVATIVES” (POLYPEPTIDE THERAPEUTIC SOLUTIONS, S.L., priority 2021, published 2025).

Tests used:
[1] = Skin permeation studies by Franz diffusion cells; type: in vitro ADME, human; conditions: TPGS-Dil and TPSS-Dil micelles 10 mg/mL, 8 h
Procedure: Breast skin samples were obtained from healthy women undergoing plastic surgery after written informed consent (kindly donated by Hospital la Fe, Valencia, Spain). Immediately after excision, the subcutaneous fatty tissue was carefully removed using a scalpel. The skin was cut into 4 cm^2 pieces, wrapped in aluminum foil and stored at −20° C. until use. To reduce inter-individual variability and afford a better comparison of results, skin from only one donor was used in all experiments. Before starting each experiment, the skin was allowed to equilibrate at room temperature (r.t.).
Permeation studies employed the modified Franz diffusion cells (Logan Instruments Corp., EE. UU) with a diffusional area of 0.95 cm^2. […]
Finally, the samples were placed in the optimum cutting temperature (OCT) inclusion medium, and slides of 5 μm were generated via cryostat (version CM1850 UV, Leica, Germany) and samples were analyzed by confocal microscopy.
Images were captured with an inverted DM IRE2 microscope equipped with a λ-blue 40× oil immersion objective and handled with a TCS SP2 system, equipped with an Acoustic Optical Beam Splitter (AOBS). […] Control tissue that follows the same incubation time with MilliQ water was also analyzed to establish the autofluorescence. Dil intensity was quantified five times per sample using Image J software.

HaCaT cells = assay: Cell viability by MTS assay, HaCaT; type: cell-based, human; conditions: 72 h, 0.1 to 2.57 μg/mL equivalents of Vitamin E
human fibroblasts = assay: Cell viability by MTS assay, fibroblasts; type: cell-based; conditions: 72 h, 0.1 to 2.57 μg/mL equivalents of Vitamin E

| SMILES | Dil found in the receptor chamber [1] | cytotoxic effect (cell viability by MTS) (HaCaT cells) | cytotoxic effect (cell viability by MTS) (human fibroblasts) |
| --- | --- | --- | --- |
| CCCCCCCCCCCCCCCCCCN1C(=CC=CC2=[N+](CCCCCCCCCCCCCCCCCC)c3ccccc3C2(C)C)C(C)(C)c2ccccc21.[O-][Cl+3]([O-])([O-])[O-] [Dil, 1,1′-dioctadecyl-3,3,3′,3′-tetramethylindocarbocyanine perchlorate] | any Dil was found in the receptor chamber | – | – |
| Cc1c(C)c2c(c(C)c1O)CC[C@@](C)(CCC[C@H](C)CCC[C@H](C)CCCC(C)C)O2 [Vitamin E, α-tocopherol] | – | no cytotoxic effect | no cytotoxic effect |
